Data as given in ChEMBL document CHEMBL4251633, “Design, synthesis, biological evaluation and cocrystal structures with tubulin of chiral β-lactam bridged combretastatin A-4 analogues as potent antitumor agents” (Eur J Med Chem, 2018).
The source made the active and inactive calls. No cut-off for these calls is given here.

Key:
[1] = system: HUVEC; assay: Antiangiogenic activity against HUVEC assessed as disruption of capillary-like tube formation at 25 to 50 nM after 12 hrs by inverted microscopic method; assay type: functional, cell-based; conditions: Homo sapiens
[2] = Acute toxicity in ICR mouse assessed as survival rate at 25 mg/kg, ip measured on day 14 (reference value: 100%); assay type: organism-based; conditions: in vivo
[3] = system: HeLa; assay: Induction of apoptosis in human HeLa cells assessed as late apoptotic cells at 200 nM after 48 hrs by Annexin V-FITC/propidium iodide staining based flow cytometry (reference value: 2%); assay type: functional
[4] = system: Mus musculus; assay: Acute toxicity in ICR mouse assessed as death at 25 to 50 mg/kg, ip measured after 4 days; assay type: organism-based; conditions: in vivo, 96 h
[5] = system: HeLa; assay: Induction of apoptosis in human HeLa cells assessed as early apoptotic cells at 200 nM after 48 hrs by Annexin V-FITC/propidium iodide staining based flow cytometry (reference value: 0.7%); assay type: functional
[6] = system: Mus musculus; assay: Acute toxicity in ICR mouse assessed as death at 25 mg/kg, ip measured after 3 days; assay type: organism-based; conditions: in vivo, 72 h
[7] = system: Mus musculus; assay: Acute toxicity in ICR mouse assessed as death at 25 to 95 mg/kg, ip measured after 2 days; assay type: organism-based; conditions: in vivo, 48 h
[8] = system: HeLa; assay: Induction of apoptosis in human HeLa cells assessed as necrotic cells at 200 nM after 48 hrs by Annexin V-FITC/propidium iodide staining based flow cytometry (reference value: 0.9%); assay type: functional
[9] = system: HeLa; assay: Induction of apoptosis in human HeLa cells assessed as necrotic cells at 100 nM after 48 hrs by Annexin V-FITC/propidium iodide staining based flow cytometry (reference value: 0.9%); assay type: functional
[10] = target: Mitotic checkpoint serine/threonine-protein kinase BUB1 beta (Homo sapiens) (UniProt O60566); assay: Induction of BubR1 hyperphosphorylation in human HeLa cells by Western blot analysis; assay type: cell-based
Mitotic checkpoint serine/threonine-protein kinase BUB1 beta (Homo sapiens), sequence (O60566 whole entry): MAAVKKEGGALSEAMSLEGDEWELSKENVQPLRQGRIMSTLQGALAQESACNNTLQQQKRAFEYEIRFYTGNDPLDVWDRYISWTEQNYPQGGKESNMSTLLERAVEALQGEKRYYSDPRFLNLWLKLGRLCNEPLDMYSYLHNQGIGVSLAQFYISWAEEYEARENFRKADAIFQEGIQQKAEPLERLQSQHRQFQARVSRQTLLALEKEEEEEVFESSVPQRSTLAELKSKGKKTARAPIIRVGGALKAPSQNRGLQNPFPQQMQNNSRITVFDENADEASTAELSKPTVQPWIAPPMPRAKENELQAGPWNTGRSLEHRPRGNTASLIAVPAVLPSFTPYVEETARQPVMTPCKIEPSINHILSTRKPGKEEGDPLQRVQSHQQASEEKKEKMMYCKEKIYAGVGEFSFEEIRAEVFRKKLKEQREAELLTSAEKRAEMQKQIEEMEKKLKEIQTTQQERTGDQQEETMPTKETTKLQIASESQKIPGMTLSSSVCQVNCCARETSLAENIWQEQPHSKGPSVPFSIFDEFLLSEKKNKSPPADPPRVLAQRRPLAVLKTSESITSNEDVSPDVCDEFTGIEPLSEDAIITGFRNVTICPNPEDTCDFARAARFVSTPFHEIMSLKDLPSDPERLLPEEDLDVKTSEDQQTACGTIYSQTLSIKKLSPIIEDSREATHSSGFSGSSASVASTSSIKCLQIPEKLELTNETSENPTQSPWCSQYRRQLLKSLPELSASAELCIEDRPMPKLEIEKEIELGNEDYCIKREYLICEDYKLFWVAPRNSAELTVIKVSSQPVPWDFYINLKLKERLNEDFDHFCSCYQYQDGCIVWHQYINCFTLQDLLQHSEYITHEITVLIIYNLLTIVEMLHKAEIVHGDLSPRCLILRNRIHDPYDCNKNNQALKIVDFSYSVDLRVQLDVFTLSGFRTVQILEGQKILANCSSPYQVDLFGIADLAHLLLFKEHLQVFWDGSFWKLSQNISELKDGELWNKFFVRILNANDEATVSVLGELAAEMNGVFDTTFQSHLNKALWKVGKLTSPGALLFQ

[11] = system: HeLa; assay: Induction of apoptosis in human HeLa cells assessed as live cells at 50 nM after 48 hrs by Annexin V-FITC/propidium iodide staining based flow cytometry (reference value: 96.5%); assay type: functional
[12] = system: Mus musculus; assay: Anti-vascular activity in Balb/c nude mouse assessed as inhibition of VEGF-induced capillary blood vessel formation using sc injected matrigel plug supplemented with 100 nM test compound mixed with VEGF and measured after 1 week by matrigel plug assay; assay type: functional, organism-based
[13] = Acute toxicity in ICR mouse assessed as survival rate at 50 mg/kg, ip measured on day 14 (reference value: 100%); assay type: organism-based; conditions: in vivo
[14] = system: HeLa; assay: Upregulation of Bax protein expression in human HeLa cells after 48 hrs by Western blot analysis; assay type: functional, cell-based
[15] = system: A2780; assay: Antitumor activity against human A2780 cells xenografted in Balb/c nude mouse assessed as tumor volume inhibition at 7.5 mg/kg, ip once in every 2 days measured up to 14 days relative to control; assay type: functional
[16] = Growth inhibition of HOSEC at 1 uM after 48 hrs by MTT assay relative to control; conditions: human, HOSEC cells; read-out: GI
[17] = Acute toxicity in ICR mouse assessed as survival rate at 35 mg/kg, ip measured on day 14 (reference value: 100%); assay type: organism-based; conditions: in vivo
[18] = system: A2780; assay: Antitumor activity against human A2780 cells xenografted in Balb/c nude mouse assessed as isolated tumor weight inhibition at 7.5 mg/kg, ip once in every 2 days measured after 14 days; assay type: functional, organism-based
[19] = system: Mus musculus; assay: Anti-vascular activity in Balb/c nude mouse assessed as inhibition of VEGF-induced capillary blood vessel formation by measuring reduction in hemoglobin level using sc injected matrigel plug supplemented with 100 nM test compound mixed with VEGF and measured after 1 week by matrigel plug assay; assay type: functional, organism-based
[20] = system: Mus musculus; assay: Toxicity in Balb/c nude mouse xenografted with human A2780 cells assessed as abnormality in liver at 7.5 mg/kg, ip once in every 2 days measured after 14 days by H and E staining based assay; assay type: organism-based; conditions: in vivo, 336 h
[21] = system: HeLa; assay: Induction of apoptosis in human HeLa cells assessed as late apoptotic cells at 100 nM after 48 hrs by Annexin V-FITC/propidium iodide staining based flow cytometry (reference value: 2%); assay type: functional
[22] = system: MDA-MB-231; assay: Anticlonogenic activity against human MDA-MB-231 cells incubated for 48 hrs followed by replacement with fresh medium measured after 7 to 10 days by gentian violet staining based assay; assay type: functional, cell-based
[23] = system: HeLa; assay: Inhibition of alpha-tubulin polymerization in human HeLa cells assessed as increase in ratio of supernatant faction to pellet fraction at 500 nM after 6 hrs by Western blot analysis; assay type: cell-based
[24] = system: Mus musculus; assay: Toxicity in Balb/c nude mouse xenografted with human A2780 cells assessed as abnormality in spleen at 7.5 mg/kg, ip once in every 2 days measured after 14 days by H and E staining based assay; assay type: organism-based; conditions: in vivo, 336 h
[25] = Acute toxicity in ICR mouse assessed as survival rate at 95 mg/kg, ip measured on day 14 (reference value: 100%); assay type: organism-based; conditions: in vivo
[26] = system: A2780; assay: Antitumor activity against human A2780 cells xenografted in Balb/c nude mouse assessed as induction of tumor necrosis at 7.5 mg/kg, ip once in every 2 days measured after 14 days by H and E staining based assay; assay type: functional, organism-based
[27] = system: HeLa; assay: Induction of apoptosis in human HeLa cells assessed as live cells at 100 nM after 48 hrs by Annexin V-FITC/propidium iodide staining based flow cytometry (reference value: 96.5%); assay type: functional
[28] = system: HeLa; assay: Induction of apoptosis in human HeLa cells assessed as early apoptotic cells at 50 nM after 48 hrs by Annexin V-FITC/propidium iodide staining based flow cytometry (reference value: 0.7%); assay type: functional
[29] = system: HeLa; assay: Induction of apoptosis in human HeLa cells assessed as necrotic cells at 50 nM after 48 hrs by Annexin V-FITC/propidium iodide staining based flow cytometry (reference value: 0.9%); assay type: functional
[30] = system: HeLa; assay: Cell cycle arrest in human HeLa cells assessed as accumulation at G2/M-phase at 50 to 100 nM after 24 hrs by propidium iodide staining based flow cytometry; assay type: functional
[31] = system: Mus musculus; assay: Toxicity in Balb/c nude mouse xenografted with human A2780 cells assessed as body weight loss at 7.5 mg/kg, ip once in every 2 days measured up to 14 days; assay type: organism-based; conditions: in vivo
[32] = system: A2780; assay: Antitumor activity against human A2780 cells xenografted in Balb/c nude mouse assessed as tumor weight inhibition at 7.5 mg/kg, ip once in every 2 days measured up to 14 days; assay type: functional, organism-based
[33] = system: HeLa; assay: Induction of apoptosis in human HeLa cells after 48 hrs by Annexin V-FITC/propidium iodide staining based flow cytometry; assay type: functional, cell-based
[34] = system: HeLa; assay: Induction of histone-H3 phosphorylation in human HeLa cells by Western blot analysis; assay type: cell-based
[35] = system: Mus musculus; assay: Acute toxicity in ICR mouse assessed as death at 25 to 95 mg/kg, ip measured after 1 day; assay type: organism-based; conditions: in vivo, 24 h
[36] = system: Mus musculus; assay: Acute toxicity in ICR mouse assessed as death at 25 to 50 mg/kg, ip measured after 5 to 14 days; assay type: organism-based; conditions: in vivo
[37] = species: Sus scrofa; assay: Inhibition of pig brain tubulin polymerization measured every 1 min for 20 mins by spectrophotometric method
[38] = system: HeLa; assay: Induction of apoptosis in human HeLa cells assessed as late apoptotic cells at 50 nM after 48 hrs by Annexin V-FITC/propidium iodide staining based flow cytometry (reference value: 2%); assay type: functional
[39] = species: Homo sapiens; assay: Disruption of microtubule structure in human SKOV3 cells assessed as decrease in density at 100 nM after 24 hrs by DAPI staining based immunofluorescence assay; assay type: cell-based
[40] = system: HeLa; assay: Upregulation of cleaved PARP1 protein expression in human HeLa cells after 48 hrs by Western blot analysis; assay type: functional, cell-based
[41] = Acute toxicity in ICR mouse assessed as survival rate at 70 mg/kg, ip measured on day 14 (reference value: 100%); assay type: organism-based; conditions: in vivo
[42] = system: HeLa; assay: Upregulation of p53 protein expression in human HeLa cells after 48 hrs by Western blot analysis; assay type: functional, cell-based
[43] = system: HeLa; assay: Upregulation of Cyclin-B1 protein expression in human HeLa cells at 50 to 200 nM by Western blot analysis; assay type: functional, cell-based
[44] = system: Mus musculus; assay: Toxicity in Balb/c nude mouse xenografted with human A2780 cells assessed as abnormality in kidney at 7.5 mg/kg, ip once in every 2 days measured after 14 days by H and E staining based assay; assay type: organism-based; conditions: in vivo, 336 h
[45] = system: HeLa; assay: Induction of apoptosis in human HeLa cells assessed as early apoptotic cells at 100 nM after 48 hrs by Annexin V-FITC/propidium iodide staining based flow cytometry (reference value: 0.7%); assay type: functional
[46] = system: HeLa; assay: Induction of apoptosis in human HeLa cells assessed as live cells at 200 nM after 48 hrs by Annexin V-FITC/propidium iodide staining based flow cytometry (reference value: 96.5%); assay type: functional

COc1ccc([C@H]2[C@H](CO)C(=O)N2c2cc(OC)c(OC)c(OC)c2)cc1O
Activity [1]: Active | survival at 14 day [2]: 100% | Activity [3]: 34.6% | Activity [4]: Non-Toxic | Activity [5]: 36.1% | Activity [6]: Non-Toxic | Activity [7]: Non-Toxic | Activity [8]: 6.7% | Activity [9]: 6.1% | Activity [10]: Dose-dependent effect | Activity [11]: 48.2% | inhibition [12]: Active | survival at 14 day [13]: 90% | Activity [14]: Dose-dependent effect | inhibition in vivo at 7.5 mg/kg [15]: 78.9% | inhibition at 48 h, 1 µM [16]: < 50% | survival at 14 day [17]: 90% | inhibition [18]: Active | inhibition [19]: Active | Activity [20]: Non-Toxic | Activity [21]: 24.6% | Activity [22]: Dose-dependent effect | tubulin polymerization inhibition (active/inactive) [23]: Active | Activity [24]: Non-Toxic | survival at 14 day [25]: 20% | Activity [26]: Active | Activity [27]: 36.3% | Activity [28]: 18.6% | Activity [29]: 13% | Activity [30]: Active | Activity [31]: Non-Toxic | inhibition [32]: Active | Activity [33]: Dose-dependent effect | Activity [34]: Dose-dependent effect | Activity [35]: Non-Toxic | Activity [36]: Non-Toxic | inhibition [37]: Dose-dependent effect | Activity [38]: 20.1% | Activity [39]: Active | Activity [40]: Dose-dependent effect | survival at 14 day [41]: 30% | Activity [42]: Dose-dependent effect | Activity [43]: Active | Activity [44]: Non-Toxic | Activity [45]: 32.9% | Activity [46]: 22.6%
